Measured values reported in US9745267B2, “Compounds as modulators of RORC” (Boehringer Ingelheim International GmbH, priority 2013, dated 2017).

Biological target: T1, RORγt (hRORC LBD) (Homo sapiens, UniProt P51449)
T1 construct: expressed in transfected cells; host or cells: HEK 293 (transient cotransfection with pGL4.3 luc2P/GAL4UAS/Hygro reporter)
T1 sequence (P51449 269-508 limits assumed): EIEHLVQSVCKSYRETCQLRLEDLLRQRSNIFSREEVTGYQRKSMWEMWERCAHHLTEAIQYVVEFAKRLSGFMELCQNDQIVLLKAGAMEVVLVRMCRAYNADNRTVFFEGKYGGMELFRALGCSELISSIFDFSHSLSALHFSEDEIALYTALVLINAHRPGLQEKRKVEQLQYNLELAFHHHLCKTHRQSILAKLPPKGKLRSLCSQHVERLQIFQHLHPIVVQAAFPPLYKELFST
Experiment: RGA Assay: nuclear receptor transactivation assay, RORγt transactivation of a luciferase reporter
Assay type: cell-based
Settings: transiently transfected HEK 293 cells, Gal4DBD hRORC LBD, 20-24 hours incubation
Procedure: A nuclear receptor transactivation assay was performed to quantitate the ability of test compounds to inhibit RORγt transactivation of a luciferase reporter. A similar assay is described in: Khan et al., Bioorganic & Medicinal Chemistry Letters 23 (2013), 532-536. The system uses transiently transfected HEK 293 cells cotransfected with two plasmids (pGL4.3, luc2P/GAL4UAS/Hygro, and pBIND, Gal4DBD hRORC LBD1-3). The positive control is co-transiently transfected with both plasmids, and the negative control contains the pGL4.3 promoter sequence. Assays were assembled in 384 well plates where transiently transfected cells and test compound at varying concentrations were incubated for 20-24 hours. The next day, assays plates are taken out and equilibrated at RT for 20-30 minutes. Bright-Glo™ Luciferase Assay System is used to detect Luciferase production. After addition of Bright GLO detection reagent, the plates were incubated at RT for 20 minutes. The plates were read on an Envision plate reader to measure luminescence signal. The RLU signal is converted to POC relative to control and blank wells.
Compound Dilution Buffer:
Bright Glo Luciferase Assay System: Promega #E2620
Thaw lysis buffer provided in kit, add 100 mL lysis buffer to substrate powder.

Row | SMILES | IC50 [nM]
1 | CNS(=O)(=O)c1ccc(CNC(=O)N2CC3(CCCC3)c3cc(-c4cccc5cccnc45)ccc32)cc1 [Example 4] | 1500
2 | CNS(=O)(=O)c1ccc(CNC(=O)N2CC3(CCCC3)c3cc(-c4cccc(N5CCCC5)c4)ccc32)cc1 [Example 5] | 1600
3 | CNS(=O)(=O)c1ccc(CNC(=O)N2CC3(CCCC3)c3cc(-c4ccccc4C(=O)OC)ccc32)cc1 [Example 19] | 1100
4 | CNS(=O)(=O)c1ccc(CNC(=O)N2CC3(CCCC3)c3cc(-c4ccccc4COC)ccc32)cc1 [Example 20] | 1100
5 | CCOCc1ccccc1-c1ccc2c(c1)C1(CCCC1)CN2C(=O)NCc1ccc(S(=O)(=O)NC)cc1 [Example 21] | 1100
6 | CNS(=O)(=O)c1ccc(CNC(=O)N2CC3(CCCC3)c3cc(-c4cccc(C)c4C)ccc32)cc1 [Example 22] | 1200
7 | CNS(=O)(=O)c1ccc(CNC(=O)N2CC3(CCCC3)c3cc(-c4ccc(OC)cc4C)ccc32)cc1 [Example 23] | 1200
8 | CCOC(=O)c1ccccc1-c1ccc2c(c1)C1(CCCC1)CN2C(=O)NCc1ccc(S(=O)(=O)NC)cc1 [Example 24] | 1300
9 | CNS(=O)(=O)c1ccc(CNC(=O)N2CC3(CCCC3)c3cc(-c4cnccc4C(F)(F)F)ccc32)cc1 [Example 25] | 1300
10 | CNS(=O)(=O)c1ccc(CNC(=O)N2CC3(CCCC3)c3cc(-c4cc(OC)c(OC)cc4C(=O)OC)ccc32)cc1 [Example 26] | 1400
11 | CNS(=O)(=O)c1ccc(CNC(=O)N2CC3(CCCC3)c3cc(-c4ccccc4C(C)=O)ccc32)cc1 [Example 27] | 1700
12 | CCS(=O)(=O)c1ccc(CNC(=O)N2CC3(CCCC3)c3cc(-c4ccc(F)cc4C)ccc32)cc1 [Example 28] | 1200
13 | CNS(=O)(=O)c1ccc(CNC(=O)N2CC3(CCCC3)c3cc(-c4ccc(C)cc4C#N)ccc32)cc1 [Example 39] | 1000
14 | CNS(=O)(=O)c1ccc(CNC(=O)N2CC3(CCCC3)c3cc(-c4ccc5c(cnn5C)c4C)ccc32)cc1 [Example 40] | 1100
15 | CNS(=O)(=O)c1ccc(CNC(=O)N2CC3(CCCC3)c3cc(-c4cc(C#N)ccc4C)ccc32)cc1 [Example 41] | 1100
16 | CNS(=O)(=O)c1ccc(CNC(=O)N2CC3(CCCC3)c3cc(-c4ccc(CO)cc4C)ccc32)cc1 [Example 42] | 1100
17 | CNS(=O)(=O)c1ccc(CNC(=O)N2CC3(CCCC3)c3cc(-c4cccc(F)c4CC#N)ccc32)cc1 [Example 43] | 1100
18 | CNc1ccc(-c2ccc3c(c2)C2(CCCC2)CN3C(=O)NCc2ccc(S(=O)(=O)NC)cc2)c(C)c1 [Example 44] | 1100
19 | CNS(=O)(=O)c1ccc(CNC(=O)N2CC3(CCCC3)c3cc(-c4ccccc4CC#N)ccc32)cc1 [Example 45] | 1200
20 | CNS(=O)(=O)c1ccc(CNC(=O)N2CC3(CCCC3)c3cc(-c4cc(F)ccc4CC#N)ccc32)cc1 [Example 46] | 1300
21 | CNS(=O)(=O)c1ccc(CNC(=O)N2CC3(CCCC3)c3cc(-c4cccc5[nH]nc(C)c45)ccc32)cc1 [Example 47] | 1500
22 | CNS(=O)(=O)c1ccc(CNC(=O)N2CC3(CCCC3)c3cc(-c4ccc5[nH]ncc5c4C)ccc32)cc1 [Example 48] | 1600
23 | CNS(=O)(=O)c1ccc(CNC(=O)N2CC3(CCCC3)c3cc(-c4cnc(OC)cc4C)ccc32)cc1 [Example 49] | 1900
24 | CNS(=O)(=O)c1ccc(CNC(=O)N2CC3(CCCC3)c3cc(-c4ccc(NC(C)=O)cc4C)ccc32)cc1 [Example 50] | 1900
25 | CCC1(CC)CN(C(=O)NCc2ccc(S(=O)(=O)NC)cc2)c2ccc(-c3ccc(F)cc3C)cc21 [Example 52] | 1100

Continued by falling IC50, values first:

Row | IC50 [nM] | SMILES
26 | 1000 | CNS(=O)(=O)c1ccc(CNC(=O)N2CC3(CCCC3)c3cc(-c4cc(C)ccc4C)ccc32)cc1 [Example 3]
27 | 1000 | CNS(=O)(=O)c1ccc(CNC(=O)N2CC3(CCCC3)c3cc(-c4c(C)cccc4C)ccc32)cc1 [Example 17]
28 | 1000 | CNS(=O)(=O)c1ccc(CNC(=O)N2CC3(CCCC3)c3cc(-c4cncnc4C(C)C)ccc32)cc1 [Example 18]
29 | 970 | CNS(=O)(=O)c1ccc(CNC(=O)N2CC3(CCCC3)c3cc(-c4cccc(C#N)c4C)ccc32)cc1 [Example 38]
30 | 960 | CNS(=O)(=O)c1ccc(CNC(=O)N2CC3(CCCC3)c3cc(-c4cc(F)ccc4C)ccc32)cc1 [Example 16]
31 | 940 | CNS(=O)(=O)c1ccc(CNC(=O)N2CC3(CCCC3)c3cc(-c4ccc(C#N)cc4C)ccc32)cc1 [Example 15]
32 | 920 | CNS(=O)(=O)c1ccc(CNC(=O)N2CC3(CCCC3)c3cc(-c4ccccc4C)ccc32)cc1 [Example 2]
33 | 920 | CNS(=O)(=O)c1ccc(CNC(=O)N2CC3(CCCC3)c3cc(-c4ccc(N)cc4C(=O)OC)ccc32)cc1 [Example 37]
34 | 890 | CNS(=O)(=O)c1ccc(CNC(=O)N2CC3(CCCC3)c3cc(-c4cc(C(C)=O)ccc4C)ccc32)cc1 [Example 35]
35 | 890 | CNS(=O)(=O)c1ccc(CNC(=O)N2CC3(CCCC3)c3cc(-c4ccncc4C(F)(F)F)ccc32)cc1 [Example 36]
36 | 870 | CNS(=O)(=O)c1ccc(CNC(=O)N2CC3(CCCC3)c3cc(-c4ccc(C)cc4C)ccc32)cc1 [Example 14]
37 | 840 | CNS(=O)(=O)c1ccc(CNC(=O)N2CC3(CCCC3)c3cc(-c4ccc(F)cc4C)ccc32)cc1 [Example 1]
38 | 840 | CNS(=O)(=O)c1ccc(CNC(=O)N2CC3(CCCC3)c3cc(-c4cc(S(=O)(=O)N(C)C)ccc4C)ccc32)cc1 [Example 13]
39 | 790 | CNS(=O)(=O)c1ccc(CNC(=O)N2CC3(CCCC3)c3cc(-c4c(F)cccc4C#N)ccc32)cc1 [Example 34]
40 | 780 | CCOc1ccc(-c2ccc3c(c2)C2(CCCC2)CN3C(=O)NCc2ccc(S(=O)(=O)NC)cc2)c(C)c1 [Example 12]
41 | 750 | CNS(=O)(=O)c1ccc(CNC(=O)N2CC3(CCCC3)c3cc(-c4c(C)ccc5c4cnn5C)ccc32)cc1 [Example 32]
42 | 750 | CNS(=O)(=O)c1ccc(CNC(=O)N2CC3(CCCC3)c3cc(-c4ccccc4-c4cnco4)ccc32)cc1 [Example 33]
43 | 740 | CNS(=O)(=O)c1ccc(CNC(=O)N2CC3(CCCC3)c3cc(-c4cc5c(cnn5C)cc4C)ccc32)cc1 [Example 30]
44 | 740 | CNS(=O)(=O)c1ccc(CNC(=O)N2CC3(CCCC3)c3cc(-c4ccccc4C(F)F)ccc32)cc1 [Example 31]
45 | 720 | CNS(=O)(=O)c1ccc(CNC(=O)N2CC3(CCCC3)c3cc(-c4cc5cnn(C)c5cc4C)ccc32)cc1 [Example 29]
46 | 690 | CNS(=O)(=O)c1ccc(CNC(=O)N2CC3(CCCC3)c3cc(-c4ccc(O)cc4C)ccc32)cc1 [Example 11]
47 | 640 | CNS(=O)(=O)c1ccc(CNC(=O)N2CC3(CCCC3)c3cc(-c4ccccc4C(F)(F)F)ccc32)cc1 [Example 10]
48 | 610 | CCc1ccccc1-c1ccc2c(c1)C1(CCCC1)CN2C(=O)NCc1ccc(S(=O)(=O)NC)cc1 [Example 9]
49 | 420 | CNS(=O)(=O)c1ccc(CNC(=O)N2CC3(CCCC3)c3cc(-c4ccc(F)cc4C(F)(F)F)ccc32)cc1 [Example 8]
50 | 340 | CNS(=O)(=O)c1ccc(CNC(=O)N2CC3(CCCC3)c3cc(-c4cc(F)ccc4C(F)(F)F)ccc32)cc1 [Example 7]
51 | 310 | CNS(=O)(=O)c1ccc(CNC(=O)N2CC3(CCCC3)c3cc(-c4ccc(OC)cc4C(F)(F)F)ccc32)cc1 [Example 6]
